The target in this test is T1, IRAK-4 (Homo sapiens, UniProt Q9NWZ3).
T1 sequence (Q9NWZ3 1-460): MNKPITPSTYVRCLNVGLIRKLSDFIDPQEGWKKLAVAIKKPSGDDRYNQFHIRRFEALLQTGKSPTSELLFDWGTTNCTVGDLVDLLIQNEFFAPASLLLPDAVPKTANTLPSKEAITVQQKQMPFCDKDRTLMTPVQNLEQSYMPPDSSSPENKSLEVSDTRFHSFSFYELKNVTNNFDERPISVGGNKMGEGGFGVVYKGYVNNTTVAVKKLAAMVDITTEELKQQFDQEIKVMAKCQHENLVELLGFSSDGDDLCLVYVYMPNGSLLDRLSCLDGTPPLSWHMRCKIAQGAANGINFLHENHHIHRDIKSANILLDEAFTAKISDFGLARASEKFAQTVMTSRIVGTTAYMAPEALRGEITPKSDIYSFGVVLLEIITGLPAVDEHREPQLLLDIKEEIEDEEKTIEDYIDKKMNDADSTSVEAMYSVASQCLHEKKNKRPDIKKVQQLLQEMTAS
Description: IRAK-4 ELISA, PBMC degradation. The test is classed as cell-based. The arrangement: endogenous in cells; host or cells: PBMC. Conditions: treated overnight. The procedure:
Reagents: Human IRAK-4 Matched Antibody Pair Kit (Abcam ab218182) and ELISA Accessory Pack (Abcam ab210905).
Cell Treatment and Lysis:
1. OCI-Ly10: 200,000 cells are seeded at 1×10^6/ml in 96-well U-bottom plates 200 ul per well, treated with compound the same day. Incubate overnight. 2. PBMC: 800,000 cells are seeded at 2×10^6/ml in 96-well U-bottom deep-well plates, 400 ul per well, treated with compound the same day. Incubate overnight.
Cell lysate is collected and analyzed by ELISA for IRAK-4 levels.
(In general: In an ELISA, binding on a coated surface is turned into a signal by an enzyme label.)

What is called DC50 is the concentration giving 50% degradation. The Dmax is the greatest extent of degradation seen. High values mean a fuller loss of target, low ones a partial loss of target.

Each structure is given as a SMILES string. Where only a bound is given, the exact number is not on record here.

On to `O=C1CCC(N2C(=O)c3ccc(N4CCO[C@@H](CN5CCC(n6cc7cc(NC(=O)c8cnn9cccnc89)c(OCC8CC8)cc7n6)CC5)C4)cc3C2=O)C(=O)N1` (stereo partly shown) [Example 176], for which the half-maximal degradation concentration (DC50) was below 1 nM, the Dmax is at least 90% and the “PBMC DC90” value is reported as “A (A represents a DC90 value <10.0 nM)”.
Take `CCN(C1CCC(n2cc3cc(NC(=O)c4cnn5cccnc45)c(OCC4CC4)cc3n2)CC1)C1CN(c2ccc3c(c2)C(=O)N(C2CCC(=O)NC2=O)C3=O)C1` (stereo not shown) [Example 325]: the DC50 lay in the range of 1 to 5 nM; the Dmax is at least 90%; the “PBMC DC90” value was “C (C represents a DC90 value ≥25.0 nM and <50 nM)”.
Turning to `COc1cc(N2CCC(CN3CCC(n4cc5cc(NC(=O)c6cnn7cccnc67)c(OCC6CC6)cc5n4)CC3)CC2)cc2c1C(=O)N(C1CCC(=O)NC1=O)C2` (stereo not shown) [Example 132], the DC50 was below 1 nM, the Dmax was at least 90% and the “PBMC DC90” value is recorded as “A (A represents a DC90 value <10.0 nM)”.
The corresponding values for `O=C1CCC(N2C(=O)c3ccc(N4CC(CN5CCC(n6cc7cc(NC(=O)c8cnn9cccnc89)c(OCC(F)F)cc7n6)CC5)C4)cc3C2=O)C(=O)N1` (stereo not shown) [Example 235] are below 1 nM, at least 90% and “A (A represents a DC90 value <10.0 nM)”.
The corresponding values for `CC(C)Oc1cc2nn([C@H]3CC[C@H](N(C)C4CCN(c5ccc6c(c5)C(=O)N(C5CCC(=O)NC5=O)C6=O)CC4)CC3)cc2cc1NC(=O)c1cnn2cccnc12` (stereo partly shown) [Example 317] are below 1 nM, at least 90% and “A (A represents a DC90 value <10.0 nM)”.
For `CC(C)Oc1cc2c(cc1NC(=O)c1cnn3cccnc13)CN(C1CCN(CC(F)(F)C3CN(c4ccc5c(c4)C(=O)N(C4CCC(=O)NC4=O)C5=O)C3)CC1)C2=O` (stereo not shown) [Example 40] the same measures were 5 to 10 nM, 80 to 90% and “D (D represents a DC90 value ≥50 nM)”.
As for `CC(C)Oc1cc2c(cc1NC(=O)c1cnn3cccnc13)CN(C1CCN(CC3(C)CN(c4ccc5c(c4)C(=O)N(C4CCC(=O)NC4=O)C5=O)C3)CC1)C2=O` (stereo not shown) [Example 72], the 50% degradation concentration (DC50) is below 1 nM, the Dmax lay within 80 to 90% and the “PBMC DC90” value is “A (A represents a DC90 value <10.0 nM)”.
The corresponding values for `CC(C)Oc1cc2c(cc1NC(=O)c1cnn3cccnc13)CN(C1CCC(N(C)C3CN(c4ccc(C(=O)NC5CCC(=O)NC5=O)c(F)c4)C3)CC1)C2=O` (stereo not shown) [Example 328] are below 1 nM, at least 90% and “A (A represents a DC90 value <10.0 nM)”.
Turning to `CCN(C1CCN(c2ccc3c(c2)C(=O)N([C@@H]2CCC(=O)NC2=O)C3=O)CC1)[C@H]1C[C@H](n2cc3cc(NC(=O)c4cnn5cccnc45)c(OC(C)C)cc3n2)C1` [Example 377, N-(2-((1r,3r)-3-((1-(2-(2,6-dioxopiperidin-3-yl)-1,3-dioxoisoindolin-5-yl)piperidin-4-yl)(ethyl)amino)cyclobutyl)-6-isopropoxy-2H-indazol-5-yl)pyrazolo[1,5-a]pyrimidine-3-carboxamide], the 50% degradation concentration (DC50) was 1 to 5 nM; the “PBMC DC90” value is “B (B represents a DC90 value ≥10.0 nM and <25.0 nM)”; the “PBMC Dmax” value is recorded as “A (A represents a Dmax value ≥90)”.
Regarding `O=C1CCC(N2Cc3cc(N4CC(F)(CN5CCC(N6Cc7cc(NC(=O)c8cnn9cccnc89)c(OCC8CC8)cc7C6=O)CC5)C4)ccc3C2=O)C(=O)N1` (stereo not shown) [Example 104], the DC50 is below 1 nM, the Dmax was in the range of 70 to 80% and the “PBMC DC90” value was “A (A represents a DC90 value <10.0 nM)”.
Regarding `O=C1CCC(N2C(=O)c3ccc(N4CC(F)(CN5CCC(n6cc7cc(NC(=O)c8cnn9ccc(N%10C[C@H]%11C[C@@H]%10CO%11)nc89)c(OCC8CC8)cc7n6)CC5)C4)cc3C2=O)C(=O)N1` (stereo partly shown) [Example 239], the DC50 was 5 to 10 nM; the greatest degradation seen (Dmax) was below 70%; the “PBMC DC90” value was “C (C represents a DC90 value ≥25.0 nM and <50 nM)”.
For `CC(C)Oc1cc2c(cc1NC(=O)c1cnn3cccnc13)CN([C@H]1CC[C@H](N3CC4(CN(c5ccc6c(c5)CN(C5CCC(=O)NC5=O)C6=O)C4)C3)CC1)C2=O` (stereo partly shown) [Example 284], the DC50 is below 1 nM, the Dmax is at least 90% and the “PBMC DC90” value is “A (A represents a DC90 value <10.0 nM)”.
For `CC(C)Oc1cc2c(cc1NC(=O)c1cnn3cccnc13)CN(C[C@@H](F)C1CCN(CC3CN(c4ccc5c(c4)CN(C4CCC(=O)NC4=O)C5=O)C3)CC1)C2=O` (stereo partly shown) [Example 16] the same measures were below 1 nM, at least 90% and “A (A represents a DC90 value <10.0 nM)”.
For the compound `CC(C)Oc1cc2nn(C3CCN(CC4(F)CN(c5ccc6c(c5)C(=O)N(C5CCC(=O)NC5=O)C6=O)C4)CC3)cc2cc1NC(=O)c1cnn2ccc(N3CCOCC3)nc12` (stereo not shown) [Example 190], the half-maximal degradation concentration (DC50) is at least 10 nM, the Dmax was at least 90% and the “PBMC DC90” value is given as “D (D represents a DC90 value ≥50 nM)”.
The corresponding values for `CN(C1CCN(c2ccc3c(c2)C(=O)N(C2CCC(=O)NC2=O)C3=O)CC1)[C@H]1CC[C@H](n2cc3cc(NC(=O)c4cnn5cccnc45)c(C4CC4)cc3n2)CC1` (stereo partly shown) [Example 344] are below 1 nM, at least 90% and “A (A represents a DC90 value <10.0 nM)”.
Take `O=C1CCC(N2C(=O)c3ccc(N4CCC5(CCC(CN6CCC(n7cc8cc(NC(=O)c9cnn%10cccnc9%10)c(OCC9CC9)cc8n7)CC6)CC5)CC4)cc3C2=O)C(=O)N1` (stereo not shown) [Example 247]: the half-maximal degradation concentration (DC50) was 1 to 5 nM; the Dmax is at least 90%; the “PBMC DC90” value was “B (B represents a DC90 value ≥10.0 nM and <25.0 nM)”.
Consider `CC(C)Oc1cc2c(cc1NC(=O)c1cnn3cccnc13)CN([C@H]1CC[C@@H](N3CCN(c4ccc5c(c4)CN(C4CCC(=O)NC4=O)C5=O)CC3)CC1)C2=O` (stereo partly shown) [Example 276], for which the 50% degradation concentration (DC50) is below 1 nM, the Dmax lay within 80 to 90% and the “PBMC DC90” value is on record as “A (A represents a DC90 value <10.0 nM)”.
The corresponding values for `Cn1c(=O)n(C2CCC(=O)NC2=O)c2cccc(N3CC(F)(CN4CCC(n5cc6cc(NC(=O)c7cnn8cccnc78)c(OCC7CC7)cc6n5)CC4)C3)c21` (stereo not shown) [Example 387] are below 1 nM, at least 90% and “A (A represents a DC90 value <10.0 nM)”.
The corresponding values for `CC(C)Oc1cc2nn(C3CCN(CC4(F)CN(c5cccc6c5C(=O)N(C5CCC(=O)NC5=O)C6=O)C4)CC3)cc2cc1NC(=O)c1cnn2cccnc12` (stereo not shown) [Example 271, N-(2-(1-((1-(2-(2,6-dioxopiperidin-3-yl)-1,3-dioxoisoindolin-4-yl)-3-fluoroazetidin-3-yl)methyl)piperidin-4-yl)-6-isopropoxy-2H-indazol-5-yl)pyrazolo[1,5-a]pyrimidine-3-carboxamide] are 5 to 10 nM, 80 to 90% and “D (D represents a DC90 value ≥50 nM)”.
On to `CC(C)Oc1cc2c(cc1NC(=O)c1cnn3cccnc13)CN(C1CCN(C3(C)CN(c4ccc5c(c4)CN(C4CCC(=O)NC4=O)C5=O)C3)CC1)C2=O` (stereo not shown) [Example 275], for which the DC50 is below 1 nM, the greatest degradation seen (Dmax) was at least 90% and the “PBMC DC90” value is given as “A (A represents a DC90 value <10.0 nM)”.
The corresponding values for `CCN(C1CN(c2cccc3c2C(=O)N(C2CCC(=O)NC2=O)C3=O)C1)[C@H]1CC[C@H](n2cc3cc(NC(=O)c4cnn5cccnc45)c(OC(C)C)cc3n2)CC1` (stereo partly shown) [Example 320] are at least 10 nM, 80 to 90% and “D (D represents a DC90 value ≥50 nM)”.
On to `CC(C)Oc1cc2c(cc1NC(=O)c1cnn3cccnc13)CN([C@H]1CC[C@H](N(C)C3CN(c4ccc5c(c4)CN(C4CCC(=O)NC4=O)C5=O)C3)CC1)C2=O` (stereo partly shown) [Example 329], for which the 50% degradation concentration (DC50) is below 1 nM.
With `CC(C)Oc1cc2nn(C3CCN(CC4(F)CN(c5ccc(C(=O)NC6CCC(=O)NC6=O)c(F)c5)C4)CC3)cc2cc1NC(=O)c1cnn2cccnc12` (stereo not shown) [Example 293], the 50% degradation concentration (DC50) lay in the range of 1 to 5 nM; the Dmax is at least 90%; the “PBMC DC90” value was “B (B represents a DC90 value ≥10.0 nM and <25.0 nM)”.
`CC(C)Oc1cc2c(cc1NC(=O)c1cnn3cccnc13)CN(C1CCC(N(CC(F)(F)F)C3CN(c4ccc5c(c4)C(=O)N(C4CCC(=O)NC4=O)C5=O)C3)CC1)C2=O` (stereo not shown) [Example 332]: the DC50 is at least 10 nM, the maximal degradation (Dmax) is at least 90% and the “PBMC DC90” value is recorded as “D (D represents a DC90 value ≥50 nM)”.
Take `CC(C)Oc1cc2nn(C3CCN(CC(F)(F)C4CN(c5ccc6c(c5)C(=O)N(C5CCC(=O)NC5=O)C6=O)C4)CC3)cc2cc1NC(=O)c1cnn2cccnc12` (stereo not shown) [Example 147]: the DC50 lay in the range of 1 to 5 nM; the Dmax is at least 90%; the “PBMC DC90” value is “B (B represents a DC90 value ≥10.0 nM and <25.0 nM)”.
As for `CC(C)Oc1cc2c(cc1NC(=O)c1cnn3cccnc13)CN(C1CCN(C[C@@H]3CCCN(c4ccc5c(c4)C(=O)N(C4CCC(=O)NC4=O)C5=O)C3)CC1)C2=O` (stereo partly shown) [Example 77], the DC50 fell in the range of 1 to 5 nM; the Dmax was at least 90%; the “PBMC DC90” value was “B (B represents a DC90 value ≥10.0 nM and <25.0 nM)”.

The values are drawn from US20230099344A1, “COMPOUNDS AND METHODS FOR THE TARGETED DEGRADATION OF IRAK-4” (Arvinas Operations, Inc., priority 2021, published 2023).
